Where a name gives a salt, the structure may show the parent alone.
How the values were obtained:
[1] = Water solubility of compound 3 free base and its salts; type: physicochemical; conditions: for solubility in water: free base, thermogravimetric method
Excerpt: HCl, phosphoric acid, tartaric acid, acetic acid, D-glucoronic acid and succinic acid were used to prepare pharmaceutically acceptable salts of compound 3.
Solid or crystalline forms or polymorphs of compounds having formula I can be achieved in the free base.

[2] = Solubility of the free base of compound 3 in solvents; type: physicochemical
Description: Typically, water solubilities of the compounds in the form of their respective free base, such as compound 3, are low to none. In an exemplary embodiment, the solubility of the free base form of compound 3 in THF, DMSO and DMF was high but the solubility in group 3 solvents, or water for example, was low. For example, acetone is needed to dissolve the free base at 50° C. […] HCl, phosphoric acid, tartaric acid, acetic acid, D-glucoronic acid and succinic acid were used to prepare pharmaceutically acceptable salts of compound 3.

Row | solubility in water [1] | solubility in water ([1]; listed as free base 3) | solubility in THF, DMSO and DMF ([2]; THF, DMSO and DMF) | solubility in group 3 solvents, or water ([2]; group 3 solvents, or water) | solubility ([1]; salts of compound 3) [µg/mL] | water solubility ([1]; salts of compound 3) [µg/mL] | SMILES
1 | little to no water solubility | not detectable | high | low | – | – | COc1ccc(-c2ccnc(Nc3ccc(S(=O)(=O)NCCCN(C)C)cc3)n2)cc1F [compound 3, N-(3-(dimethylamino)propyl)-4-(4-(3-fluoro-4-methoxyphenyl)pyrimidin-2-ylamino)benzenesulfonamide]
2 | – | – | – | – | 5170 | 5700 | COc1ccc(-c2ccnc(Nc3ccc(S(=O)(=O)NCCCN(C)C)cc3)n2)cc1F [D-glucoronate salt of compound 3]

Reference: patent US20080262010A1, “CRYSTALLINE POLYMORPHS OF N-(3-(DIMETHYLAMINO)PROPYL)-4-(4-(3-FLUORO-4-METHOXYPHENYL) PYRIMIDIN-2-YLAMINO) BENZENESULFONAMIDE AS D-GLUCORONATE SALTS” (Wyeth, priority 2007, published 2008)
